Results: PMC6540907, “The nuclear export inhibitor aminoratjadone is a potent effector in extracellular-targeted drug conjugates” (Chemical Science, 2019)

Columns and labels:
folate receptor-α, FRα = target: folate receptor-α, FRα; set-up: method as in ref 31 = [31]; Lu Y. Low P. S. Adv. Drug Delivery Rev. 2012 64 342 352; conditions: read-out: folate affinity of the receptors; cited from earlier work
[1] = set-up: method as in PMID 8761384; conditions: standalone drug; cited from earlier work
nuclear export = test system: nuclear export; set-up: method as in PMID 20055390, PMID 26833854; conditions: cited from earlier work
KB-3.1 cells = test: Flow cytometry, fluorescence intensity per cell; format: cell-based, human; conditions: KB-3.1, 1 µM, 30 min, 37 °C
Protocol: Analysis of cell labeling with fluorescein-labeled conjugates
All cell lines were maintained as recommended by the American Type Culture Collection in DMEM or RPMI
containing 5% glutamine (Thermo Fisher Scientific, Waltham, USA) supplemented with 10% FBS (Thermo
Fisher Scientific, Waltham, USA). For flow cytrometric analysis cells were detached by trypsin and the
density was adjusted to 2 x 10^6 cells/ml. The cell suspension was incubated with compounds at 1µM final
concentration for 30min at 37°C, followed by two washing steps in PBS. For analysis of fluorescein intensity
a LSRFortessa™ with FACSDiva™ software (BD Biosciences, Heidelberg, Germany) with the 488nm laser in
combination with 525/50nm band pass filter was used. Data was evaluated using FlowJo software
(FLOWJO LLC, Oregon, US).

CRM1 [2] = target: T1, CRM1 (Homo sapiens, UniProt O14980); test: Streptavidin pull-down from HeLa cell lysate with LC-MS/MS identification; format: binding; set-up: endogenous in cells; host or cells: HeLa cells (treated live with biotin conjugate 36, then lysed); conditions: HeLa cells, 100 ng mL–1, 5 h; control additionally incubated with an excess of 1
T1 sequence (O14980 whole entry): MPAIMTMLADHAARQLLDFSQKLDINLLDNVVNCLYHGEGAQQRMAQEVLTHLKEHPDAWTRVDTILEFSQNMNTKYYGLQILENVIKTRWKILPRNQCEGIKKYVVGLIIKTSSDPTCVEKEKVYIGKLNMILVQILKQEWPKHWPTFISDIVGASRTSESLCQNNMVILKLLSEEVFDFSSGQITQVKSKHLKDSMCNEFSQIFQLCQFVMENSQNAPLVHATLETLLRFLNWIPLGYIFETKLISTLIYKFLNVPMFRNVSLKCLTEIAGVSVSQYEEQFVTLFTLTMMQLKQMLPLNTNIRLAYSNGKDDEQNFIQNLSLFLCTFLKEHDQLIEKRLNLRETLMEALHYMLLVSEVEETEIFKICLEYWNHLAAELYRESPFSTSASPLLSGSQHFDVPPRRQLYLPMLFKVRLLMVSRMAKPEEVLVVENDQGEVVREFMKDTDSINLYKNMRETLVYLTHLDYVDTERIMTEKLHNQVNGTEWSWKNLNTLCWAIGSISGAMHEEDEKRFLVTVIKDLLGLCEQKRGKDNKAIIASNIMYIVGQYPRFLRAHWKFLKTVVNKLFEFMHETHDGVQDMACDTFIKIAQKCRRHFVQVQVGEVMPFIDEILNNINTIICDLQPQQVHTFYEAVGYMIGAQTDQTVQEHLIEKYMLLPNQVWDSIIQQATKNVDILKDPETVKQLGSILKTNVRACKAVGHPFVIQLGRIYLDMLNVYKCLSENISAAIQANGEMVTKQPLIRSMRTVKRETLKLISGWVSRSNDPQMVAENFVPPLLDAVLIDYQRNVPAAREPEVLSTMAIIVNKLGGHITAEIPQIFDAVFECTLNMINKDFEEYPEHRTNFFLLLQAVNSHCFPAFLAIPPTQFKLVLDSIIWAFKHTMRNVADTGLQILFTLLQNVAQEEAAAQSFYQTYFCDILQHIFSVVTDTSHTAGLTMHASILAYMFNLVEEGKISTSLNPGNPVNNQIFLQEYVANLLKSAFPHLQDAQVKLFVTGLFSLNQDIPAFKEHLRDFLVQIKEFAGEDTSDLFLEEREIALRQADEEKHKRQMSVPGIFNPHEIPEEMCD
Protocol: To verify that this activity was indeed CRM1-mediated, HeLa cells were incubated with 36 at a concentration of 100 ng mL^–1 for 5 h and lysed.
The cell lysate was incubated with streptavidin-coupled sepharose beads, and bound proteins were eluted, digested and identified by LC-MS/MS.
Streptavidin-Pull-down with Ratjadone-biotin and identification of exportin by LC-MSMS A chemical pull down was performed to verify binding of ratjadone to Crm1. HeLa cells were treated with ratjadone-biotin, ratjadone or both at 0.1μg/ml final concentration for 5h. Cells were detached by scraping, washed twice in PBS and lysed in MPER-buffer (Thermo Fisher, Waltham, USA) supplemented with complete protease inhibitor (Roche, Mannheim, Germany). After 5min incubation on ice the lysate was centrifuged (20min, 13000rpm, 4°C) and the supernatant was incubated with streptavidin sepharose high performance (GE healthcare, Freiburg, Germany) overnight at 4°C. The next day beads were washed twice with PBS and resuspended in elution buffer (Roth) and heated to 95°C for 10min. 5% were tested on WesternBlot with a biotin-specific antibody.
Figure S12: Gel of α-Streptavidin pulldown experiment: Identification of protein band in the eluat of Biotin-PEG3-16S- […]

CRM1 [3] = target: T1, CRM1; test: Nuclear export inhibition, fluorescent translocation biosensor in recombinant HeLa cells; format: cell-based; set-up: This cellular assay uses HeLa cells that express a recombinant fusion protein; endogenous in cells; host or cells: HeLa cells stably expressing the NLS-GST-GFP-RevNES translocation biosensor (HeLaRevBio); conditions: nuclear export inhibition IC50, HeLa cells expressing translocation biosensor, 1 h incubation

CCC(=C/[C@H](C)C/C=C/C(C)=C/[C@@H](C)C(=O)[C@@H](C)[C@H](O)[C@@H](C)C/C(C)=C/C(=O)O)/C=C/[C@@H]1OC(=O)C=C[C@@H]1C [Compound 5, leptomycin B]
outcome of early clinical trials [1]: failed due to its high systemic toxicity

CCC(=C/C(C)C)/C=C/[C@H]1CC=CC(=O)O1 [Compound 8]
concentration at which nuclear export is inhibited (nuclear export): 25 nM

O=C1OC2(c3ccc(O)cc3Oc3cc(O)ccc32)c2ccccc21 [fluorescein]
fluorescence intensity per cell (KB-3.1 cells): did not label the cells

CC=CC1OC(C(C=CC=C(C)CC(C)C=C(C)C=CC2CC=CC(=O)O2)NC(=O)OCCc2cn(CCOCCOCCOCCNC(=O)CCCCC3SCC4NC(=O)NC43)nn2)CC(O)C1C (stereo not drawn) [Compound 36, biotin-PEG3-16S-aminoratjadone]
CRM1 identified in streptavidin pull-down (CRM1 [2]): clearly identified in this manner and strongly enriched | IC50 (CRM1 [3]): 152 nM
